Laboratory results as given in patent US5166379A, “Synthesis of compounds with biological activity, and methods of use” (Harbor Branch Oceanographic Institution, Inc., priority 1990, dated 1992).
Several values for one entry are separate records, joined by “and”; a condition that tells them apart may be missing. Equal values may be shown once. Read-outs that look alike come from different tables or passages of the source.

Legend:
[1] = tested on: graft vs host reaction in CB6F1 mice grafted with BALB/c splenocytes; test: Graft vs. Host (GVHR) in vivo activity
Description: III. Graft vs. Host (GVHR) In Vivo Activity
1. Donor mice (BALB/c) were sacrificed, spleens removed, and spleen cell suspensions prepared in tissue culture medium.
2. The above splenocyte suspension was adjusted to 10.0×10^7 cells/ml.
3. Mice were treated with varying dosages of the test compound. […] Treatment consisted of intraperitoneal injections, daily for 7 days. Dosages were calculated on a mg per kg body weight basis.
4. On day 1 of the first treatment regimen, recipient mice (CB6) were injected intraperitoneally with 0.50 ml (50.0×10^6) of the donor (BALB/c) splenocyte suspension.
5. Controls consisted of the following:
POS--mice receiving BALB/c splenocytes (Positive Control)
SYN--mice receiving CB6 splenocytes (Syngeneic Control)
CYP--mice receiving Cyclophosphamide (100 mg/kg) and BALB/c splenocytes
6. At the end of five days, recipient mice were sacrificed, weighed, and spleens removed and weighed.
7. A spleen index of 1.0 was assigned to the mean spleen weights (adjusted to body weight) of the SYN controls. The spleen index of treated mice was determined by comparing the spleen weights of those mice with that of the […]. […] As a general rule, a spleen index of less than the positive control is indicative of an immunosuppressive (ID) compound.
^a CB6F1 mice (5 mice per group) were grafted with 5 ×
10^7 BALB/c spelnocytes, i.p. on Day 0. Groups were injected, ii.p.,
with drug (or vehicle) on Days 1-6. Positive designates grafted mice
receiving vehicle alone.
^b Number of surviving mice at end of experiment.
(Stimulation Index of Syngeneic group (CB6F1 ->CB6F1) = 100

[2] = tested on: murine splenocyte suspensions (BALB/c and C57BL/6J mice); test: Mixed Lymphocyte Reaction (MLR); format: cell-based
Description: I. Mixed Lymphocyte Reaction
1. Murine splenocyte suspensions were prepared separately from BALB/c and C57BL/6J mice. […] The cell concentrations were adjusted to 2.5×10^6 cells/ml. Aliquots of each cell population were removed to separate tubes, and the remaining two cell suspensions combined to one tube.
(§1) 2. Serial, log10 dilutions of the pure compound were made in absolute ethanol, and 10 μl of each dilution was added to wells of microtiter test plates, and allowed to dry.
3. A volume of 0.2 ml of the combined splenocyte suspensions was added to triplicate test wells. Positive control wells received combined splenocyte suspensions in the absence of the test compounds. Negative control wells consisted of separate (not mixed) splenocyte suspensions cultured in the absence of the test compounds.
4. Plates were incubated in 5% CO2 at 37° C. for 86 hours.
5. A volume of 0.05 ml of ^3 H-thymidine (20 μCi/ml) was added to each well, and the plates were incubated in 5% CO2 at 37° C. for an additional 5 hours.
6. The contents of each well of the microtiter plates were harvested onto glass fiber filter strips, and the resulting filter discs placed in scintillation vials to which 2.0 ml of scintillation fluid was added.
7. The amount of incorporated ^3 H-thymidine was determined by counting the vials in a liquid scintillation counter.
8. Triplicate counts were averaged, and the data reported as a percentage of the positive control.

[3] = Lymphocyte Viability Assay (LCV); format: cell-based, murine; settings: mouse, splenocytes, read-out: % LCV (percentage of positive control)
Description: (§2) II. Lymphocyte Viability Assay
(§3) 1. Compounds were similarly tested in parallel with the MLR to determine their toxic effects on lymphoid cells using the lymphocyte viability assay (LCV).
as §1
(§4) 3. Murine splenocyte suspensions were prepared from BALB/c mice. […] The cell concentrations were adjusted to 2.5×10^6 cells/ml.
(§5) 4. A volume of 0.2 ml of the splenocyte suspension was added to replicate test wells. Positive control wells received splenocyte suspensions in the absence of the test compounds.
(§6) 5. Plates were incubated at 37° C. for 86 hours. At the end of the incubation period, a volume of 75 μl of a 2.0 mg/ml solution of MTT was added to each well, and the plates were returned to the incubator for an additional 5 hours.
(§7) 6. The supernatants from each microwell were then removed, and a volume of 200 μl of isopropanol was added and the contents mixed.
(§8) 7. Values were obtained by comparing the optical densities (determined at 570 and 650 nm) of wells containing the test compounds with those of wells containing cells and medium only (positive control). The results are expressed as a percentage of the positive control.
(§9) 8. Replicate counts were averaged, and the data reported as a percentage of the positive control. An LCV value of less than 60% of the positive control is an indication of cytotoxicity of the test compounds for lymphoid cells.

[4] = tested on: lymphoid cells (murine BALB/c splenocytes); test: Lymphocyte Viability Assay (LCV); format: cell-based
Description: as §2, §3, §1, §4, §5, §6, §7, §8, §9

[5] = Mus musculus, Splenocyte, 0.05 μg/ml, read-out: % MLR (percentage of positive control)
[6] = Mus musculus, Splenocyte, 0.5 μg/ml, read-out: % MLR (percentage of positive control)
[7] = Mus musculus, Splenocyte, 5.0 μg/ml, read-out: % MLR (percentage of positive control)
[8] = Mus musculus, Splenocyte, 50 μg/ml, read-out: % MLR (percentage of positive control)

## C#CC(O)CCCCCCCCCCCCCCCC (stereo not shown) [CH3 (CH2)15 CHOHC≡CH]
[1]; 50.0 mg/kg, i.p.
  % Suppression: 49%
[1]; 100 mg/kg, i.p.
  % Suppression: 0%
[1]; 150.0 mg/kg, i.p.
  % Suppression: 4%
[1]; 200 mg/kg, i.p.
  % Suppression: 0%
[2]; Mus musculus, Splenocyte, 0.005 μg/ml, read-out: % MLR (percentage of positive control)
  activity at 0.005 µg/mL: 0%
[2]; [5]
  activity at 0.05 µg/mL: 0%
[2]; [6]
  activity at 0.5 µg/mL: 0%
[2]; [7]
  activity at 5 µg/mL: 0%
[2]; [8]
  activity at 50 µg/mL: 0%
[3]; 0.005 μg/ml
  viability: 65%
[3]; 0.05 μg/ml
  viability: 49%
[3]; 0.5 μg/ml
  viability: 22%
[3]; 5.0 μg/ml
  viability: 24%
[3]; 50 μg/ml
  viability: 22%

## C#CC(O)C=CC=CCCCC (stereo not shown) [CH3 (CH2)3 CH=CH--CH=CH--CHOHC≡CH]
[2]; [5]
  activity at 0.05 µg/mL: 134%
[2]; [6]
  activity at 0.5 µg/mL: 0%
[2]; [7]
  activity at 5 µg/mL: 0%
[2]; [8]
  activity at 50 µg/mL: 0%
[3]; 0.05 μg/ml
  viability: 103%
[3]; 0.5 μg/ml
  viability: 72%
[3]; 5.0 μg/ml
  viability: 14%
[3]; 50 μg/ml
  viability: 29%

## C=CC(O)CCCCCCCCCCCCCCCC (stereo not shown) [CH3 (CH2)15 CHOHCH=CH2]
[2]; [5]
  activity at 0.05 µg/mL: 99%
[2]; [6]
  activity at 0.5 µg/mL: 74%
[2]; [7]
  activity at 5 µg/mL: 0%
[2]; [8]
  activity at 50 µg/mL: 0%
[3]; 0.05 μg/ml
  viability: 80%
[3]; 0.5 μg/ml
  viability: 80%
[3]; 5.0 μg/ml
  viability: 2%
[3]; 50 μg/ml
  viability: 5%

## C#CC(O)CCCCCCCCCCCCCCC (stereo not shown) [CH3 (CH2)14 CHOHC≡CH]
[2]; [5]
  activity at 0.05 µg/mL: 100%
[2]; [6]
  activity at 0.5 µg/mL: 0%
[2]; [7]
  activity at 5 µg/mL: 0%
[2]; [8]
  activity at 50 µg/mL: 0%
[3]; 0.05 μg/ml
  viability: 105%
[3]; 0.5 μg/ml
  viability: 47%
[3]; 5.0 μg/ml
  viability: 36%
[3]; 50 μg/ml
  viability: 10%

## C#CC(O)CCCC (stereo not shown) [CH3 (CH2)3 CHOHC≡CH]
[2]; [5]
  activity at 0.05 µg/mL: 89%
[2]; [6]
  activity at 0.5 µg/mL: 136%
[2]; [7]
  activity at 5 µg/mL: 47%
[2]; [8]
  activity at 50 µg/mL: 0%
[3]; 0.05 μg/ml
  viability: 117%
[3]; 0.5 μg/ml
  viability: 116%
[3]; 5.0 μg/ml
  viability: 0%
[3]; 50 μg/ml
  viability: 61%

## O=P1(N(CCCl)CCCl)NCCCO1 (stereo not shown) [Cyclophosphamide, reference compound]
[1]; 100 mg/kg, i.p.
  % Suppression: 160% and 142% and 132%
[1]; 100 mg/kg, i.p., 5 mice per group
  # Mice (number of surviving mice at end of experiment): 5 mice
[1]; mouse, in vivo
  suppression of the GVHR (splenomegaly response), in words: displayed the characteristic suppression of the splenomegaly response

## C#CC(=O)CCCCCCCCCCCCCCCC [CH3 (CH2)15 COC≡CH]
[2]; [5]
  activity at 0.05 µg/mL: 114%
[2]; [6]
  activity at 0.5 µg/mL: 7%
[2]; [7]
  activity at 5 µg/mL: 0%
[2]; [8]
  activity at 50 µg/mL: 0%
[3]; 0.05 μg/ml
  viability: 91%
[3]; 0.5 μg/ml
  viability: 89%
[3]; 5.0 μg/ml
  viability: 47%
[3]; 50 μg/ml
  viability: 34%

## C#CC(O)CCCCCCC (stereo not shown) [CH3 (CH2)6 CHOHC≡CH]
[2]; [5]
  activity at 0.05 µg/mL: 117%
[2]; [6]
  activity at 0.5 µg/mL: 130%
[2]; [7]
  activity at 5 µg/mL: 131%
[2]; [8]
  activity at 50 µg/mL: 108%
[3]; 0.05 μg/ml
  viability: 72%
[3]; 0.5 μg/ml
  viability: 85%
[3]; 5.0 μg/ml
  viability: 70%
[3]; 50 μg/ml
  viability: 61%

## C#CC(O)C=CCCCCCCCCCCCCCCCC (stereo not shown) [CH3 (CH2)15 CH=CHCOHC≡CH]
[2]; 0.05 μg/ml
  % MLR (percentage of positive control): 13%
[2]; 0.5 μg/ml
  % MLR (percentage of positive control): 0%
[2]; 5.0 μg/ml
  % MLR (percentage of positive control): 0%
[2]; 50 μg/ml
  % MLR (percentage of positive control): 0%
[4]; 0.05 μg/ml
  % LCV (percentage of positive control): 78%
[4]; 0.5 μg/ml
  % LCV (percentage of positive control): 78%
[4]; 5.0 μg/ml
  % LCV (percentage of positive control): 17%
[4]; 50 μg/ml
  % LCV (percentage of positive control): 13%

## CCCCCC=CC(O)C#CCCCCCCCC (stereo not shown) [CH3 (CH2)4 CH=CH--CHOH--C≡C--(CH2)7 CH3]
[2]; 0.05 μg/ml
  % MLR (percentage of positive control): 127%
[2]; 0.2 μg/ml
  % MLR (percentage of positive control): 135%
[2]; 0.8 μg/ml
  % MLR (percentage of positive control): 122%
[2]; 3.1 μg/ml
  % MLR (percentage of positive control): 64%
[2]; 12.5 μg/ml
  % MLR (percentage of positive control): 0%
[2]; 50 μg/ml
  % MLR (percentage of positive control): 0%
[4]; 0.05 μg/ml
  % LCV (percentage of positive control): 128%
[4]; 0.2 μg/ml
  % LCV (percentage of positive control): 119%
[4]; 0.8 μg/ml
  % LCV (percentage of positive control): 105%
[4]; 3.1 μg/ml
  % LCV (percentage of positive control): 86%
[4]; 12.5 μg/ml
  % LCV (percentage of positive control): 28%
[4]; 50 μg/ml
  % LCV (percentage of positive control): 14%

## C#CC(O)CCC=CCCCCC (stereo not shown) [CH3 (CH2)4 CH=CHCH2 CH2 CHOHC≡CH]
[1]; 50.0 mg/kg, i.p.
  % Suppression: 35%
  Stim. Index (spleen index): 2.09
[1]; 100 mg/kg, i.p.
  % Suppression: 59%
  Stim. Index (spleen index): 1.69
[1]; 150.0 mg/kg, i.p.
  % Suppression: 28%
  Stim. Index (spleen index): 2.21
[1]; 200 mg/kg, i.p.
  % Suppression: 57%
  Stim. Index (spleen index): 1.72
[1]; mouse, in vivo
  suppression of the GVHR (splenomegaly response), in words: demonstrated suppressive activity in the GVHR at all dosages tested
  toxicity as measured by survival of treated recipients, in words: no associated toxicity as measured by survival of treated recipients
[2]; [5]
  activity at 0.05 µg/mL: 137%
[2]; [6]
  activity at 0.5 µg/mL: 122%
[2]; [7]
  activity at 5 µg/mL: 110%
[2]; [8]
  activity at 50 µg/mL: 50%
[3]; 0.05 μg/ml
  viability: 65%
[3]; 0.5 μg/ml
  viability: 57%
[3]; 5.0 μg/ml
  viability: 45%
[3]; 50 μg/ml
  viability: 51%
